{
  "source": "patent US12703686B2",
  "about": "“4-Methoxy-2-phenethyl isoindoline-1-one derivative and composition for treating neurological diseases, comprising same” (CNG BIO CO., LTD., priority 2020, dated 2026)",
  "key": {"C6 glioma cells": {"system": "C6 glioma cells", "test": "Ability to promote increase of nerve growth factor (NGF) in C6 glioma cells, ELISA", "format": "cell-based, Rat", "details": "10 μM, 24 hours, FIG. 9", "experimental": "In order to measure the amount of nerve growth factor (NGF) produced in the cell medium and to confirm the effect on cell viability when cells were treated with the compounds of the present invention, the following experiments were performed.\nRat astrocyte-derived C6 glioma cells were dispensed in DMEM culture solution at a concentration of 1×10^5 cells/well in a 24 well plate and stabilized overnight, and then treated with the compounds of Formulas 3, 6, 7, and 8 at a concentration of 10 μM, and reacted in a 37° C. incubator for 24 hours. The treated medium was collected and centrifuged, and then absorbance was measured using an enzyme linked immunoassay kit (ELISA kit)."}, "BV2 cells (microglia)": {"system": "BV2 cells (microglia)", "test": "NO production in LPS-stimulated BV2 cells (Griess reaction), antineuritic activity", "format": "cell-based", "details": "10 NM, 100 ng/ml LPS for 24 hours, FIG. 13", "experimental": "In order to confirm the change in NO production and the effect on cell viability when BV2 cells were treated with the compounds of the present invention, the following experiments were performed. L-NMMA (NG-monomethyl-L-arginine), an NO synthesis inhibitor, was used as a positive control group.\nAnalysis of NO production for evaluation of antineuritic activity BV2 cells (microglia) were dispensed in DMEM culture solution at a concentration of 6×10^4 cells/well in a 96 well plate, and then treated with the compounds of Formulas 6, 7, and 8 at a concentration of 10 NM, and incubated for 24 hours. After 24 hours, each sample was treated with a concentration of 10 NM, reacted for 1 hour, and then stimulated with 100 ng/ml of LPS for 24 hours. The production of nitrite, a soluble oxidation product of NO (nitric oxide), was measured in the culture medium through the Griess reaction."}},
  "data": [
    {"smiles": "C=CCc1c(O)cc(OC)c2c1C(=O)N(CCc1ccccc1)C2", "note": "[Formula 3, 7-allyl-6-hydroxy-4-methoxy-2-phenethyl isoindolin-1-one]", "values": [
      {"measurement": "nerve growth factor produced in the cell medium", "setting": "C6 glioma cells", "value": "significantly excellent"}
    ]},
    {"smiles": "COc1cc(O)c(CCO)c2c1CN(CCc1ccccc1)C2=O", "note": "[Formula 6, 6-hydroxy-7-(2-hydroxyethyl)-4-methoxy-2-phenethyl isoindolin-1-one]", "values": [
      {"measurement": "NO production (nitrite) compared to untreated control group", "setting": "BV2 cells (microglia)", "value": "reduced"}
    ]},
    {"smiles": "COc1cc(O)c(CCN(C)C)c2c1CN(CCc1ccccc1)C2=O", "note": "[Formula 7, 7-(2-(dimethylamino)ethyl)-6-hydroxy-4-methoxy-2-phenethyl isoindolin-1-one]", "values": [
      {"measurement": "NO production (nitrite) compared to untreated control group", "setting": "BV2 cells (microglia)", "value": "reduced"},
      {"measurement": "nerve growth factor produced in the cell medium", "setting": "C6 glioma cells", "value": "significantly excellent"}
    ]},
    {"smiles": "COc1cc(O)c(CCCO)c2c1CN(CCc1ccccc1)C2=O", "note": "[Formula 8, 6-hydroxy-7-(3-hydroxypropyl)-4-methoxy-2-phenethyl isoindolin-1-one]", "values": [
      {"measurement": "NO production (nitrite) compared to untreated control group", "setting": "BV2 cells (microglia)", "value": "reduced"}
    ]}
  ]
}
